The test system of series [1] is brush-border membrane vesicles (BBMVs). The experiment in a line: Membrane fluidity of BBMVs by fluorescence polarization (fluorescence anisotropy). The note with it: rat BBMVs, 37 °C, SLG-30 0.1-1.0% v/v, vs control, n = 4. Here is the method: To prepare BBMVs, we followed the methods as reported previously with a slight modification. Briefly, an in situ small intestinal loop was prepared in each rat, as mentioned above, and then, PBS (pH 7.4) was administered into the loop. The fat was trimmed off from the small intestine and mesentery. Then, the whole small intestine was soaked in ice-cold PBS (pH 7.4). The small intestine was divided into 10 cm segments. Mucosa was scraped out with a slide glass from each of these segments and used for subsequent studies. BBMVs were prepared by the divalent cation precipitation method using MgCl2 in the presence of ethylenebis (oxyethylenenitrilo) tetraacetic acid (EGTA). Briefly, the collected mucosa was homogenized in a buffer containing mannitol (300 mM), EGTA (5 mM), and Tris (pH 7.4) (12 mM) by using a tissue homogenizer. An aqueous solution of 10 mM magnesium chloride was added to the homogenate. The homogenate was centrifuged at 3000× g for 15 min. The supernatant was then centrifuged at 32,000× g for 30 min. The pellet was resuspended in a buffer containing mannitol (300 mM), EGTA (5 mM), and Tris (pH 7.4) (12 mM) by using a 26-G needle. The protein concentration was determined by the BCA method using bovine serum albumin as a standard, and the final concentration was adjusted to 1 mg/ml in each Eppendorf tube. The samples were frozen by liquid nitrogen and kept at −80 °C for further studies.
The BBMVs (100 μg protein) were incubated with 1 μM DPH, with 0.5 μM tma-DPH or with 5 μM DNS-Cl in HEPES-Tris buffer (25 mM HEPES, 5.4 mM KCl, 1.8 mM CaCl2, 0.8 mM MgSO4, 140 mM NaCl, 5 mM glucose, pH 7.4 adjusted by 1 M Tris) in the dark at 37 °C for 30 min [25, 28]. Then, various concentrations (0.1% v/v, 0.25% v/v, 0.5% v/v, and 1.0% v/v) of SLG-30 were added. Then, the samples were incubated in the dark for 1 min at 37 °C. For the control group, the same procedure was carried out by adding the HEPES-Tris buffer only. The fluorescence intensities and the steady-state polarization of fluorescence expressed as the fluorescence anisotropy, r, of the labeled membrane vesicles were measured at 37 °C. The excitation and emission wavelengths were λex = 360 nm, and λem = 430 nm for DPH and tma-DPH and λex = 380 nm and λem = 480 nm for DNS-Cl. The measurements were carried out by using a Hitachi Spectrofluorometer (F-2000 Spectrofluorometer, Hitachi Seisakusho Corp, Yokohama, Japan) equipped with a polarizer set.
The fluorescence anisotropy (r) was calculated using the following equation: r=IV−IH/IV+2IH where IV and IH respectively represent the […] fluorescence intensities to the polarized excitation plane.

The test system of another series is claudin-4. The experiment in a line: Western blotting of claudin-4 in rat small intestine after in situ treatment. The format is in vivo. As to the method: Western blotting was performed by the method described previously with slight modifications. Three male Wistar rats weighing 250 g were prepared to perform an in situ closed-loop method on the small intestine, as mentioned above. A control study, a treatment study, and a pretreatment study were conducted on the first, second, and third rat, respectively. For the control study, only PBS solution (pH 7.4) was administered into the small intestine, and then, the rat was sacrificed, while for the treatment study, SLG-30 was administered for 1 h, and then, the rat was sacrificed without washing the SLG-30 out. The pretreatment study was performed by administrating SLG-30 for 1 h then washing it out with PBS solution (pH 7.4), followed by sacrificing the rat after 4 h. The small intestine (60 cm) of three rats was taken and treated, as mentioned above, for extracting the BBMVs. […]
The expression levels of proteins from the claudin family, in the homogenate of the small intestine membrane, were evaluated by western blotting. […] The signals were visualized by luminescence imaging (Fujifilm Luminescent Image Analyzer LAS4000 System, Tokyo, Japan). The intensity of each signal was corrected using the values obtained from the β-actin bands, and the relative protein intensity was expressed as the fold change compared to the relative protein intensity in the normal group.

The next series relates to Caco-2 cells. Put plainly: Caco-2 cell damage by LDH release. The format is cell-based, Human. As to the method:
After the transport studies were over, the solution on the apical side of each well was collected. Cell injury caused by SLG-30 was determined by tracking the LDH release. The cell precipitate and the monolayers left on the filters were solubilized with 1% (v/v) Triton X-100. The solutions from apical sides and the lysates were centrifuged for 7 min at 200× g at a temperature of 4 °C. The activities of LDH in the supernatant were measured. (LDHrelease) stands for the activity of the LDH released into the apical side in the existence of SLG-30. (LDHcell) stands for the activity of the LDH obtained from the cell lysate. LDHreleased% was calculated by the following equation:LDHrelease% = LDHrelease × 100/(LDHrelease + LDHcells)
(In general: Release of lactate dehydrogenase indicates damage to the cell membrane.)

As for `CCCCCCCCCCCC(=O)NC(CCC(=O)NCCCCC(NC(=O)CCC(NC(=O)CCCCCCCCCCC)C(=O)O)C(=O)O)C(=O)O` (stereo not shown) [SLG-30, sodium dilauramidoglutamide lysine], the “fluorescence anisotropy of tma-DPH (outer lipid bilayers)” value in series [1] (0.5 μM tma-DPH) was “significantly increased”. Besides, the “fluorescence anisotropy of DPH (inner lipid bilayers)” value in series [1] (1 μM DPH) is given as “slightly decreased”. For the same compound, the “fluorescence anisotropy of DNS-Cl (protein portion)” value in series [1] (5 μM DNS-Cl, p < 0.01) was “significantly reduced”. Moreover, in the series on claudin-4 (pretreatment study: 0.5% (v/v) SLG-30 for 1 h, washed out, proteins extracted after 4 h), the “claudin-4 expression level less than the control” value is listed as about 45%. Also, the “decrease of the intensity of the claudin-4 band” value in the series with claudin-4 (treatment with 0.5% (v/v) SLG-30 for 1 h, rat small intestine, vs control) amounted to 64%. Also, in the series with Caco-2 cells (SLG-30 0.001-0.1% (v/v), after the transport studies, n = 6), the “activity of LDH released from Caco-2 cells vs control” value is “did not increase”. Also, the Caco-2 cell injury entry in the series with Caco-2 cells (SLG-30 at concentrations used in in vivo studies) was “the cells were detached and severely injured”.

Values taken from article PMC6523531, “Mechanistic Studies on the Absorption-Enhancing Effects of Gemini Surfactant on the Intestinal Absorption of Poorly Absorbed Hydrophilic Drugs in Rats” (Pharmaceutics, 2019).
